The values that follow come from patent US9550755B2, “Complement pathway modulators and uses thereof” (NOVARTIS AG, priority 2012, dated 2017).

The structures appear in SMILES notation.

What is called IC50 is the concentration that gives 50% inhibition.

Recombinant human factor D, sequence (P00746 26-253): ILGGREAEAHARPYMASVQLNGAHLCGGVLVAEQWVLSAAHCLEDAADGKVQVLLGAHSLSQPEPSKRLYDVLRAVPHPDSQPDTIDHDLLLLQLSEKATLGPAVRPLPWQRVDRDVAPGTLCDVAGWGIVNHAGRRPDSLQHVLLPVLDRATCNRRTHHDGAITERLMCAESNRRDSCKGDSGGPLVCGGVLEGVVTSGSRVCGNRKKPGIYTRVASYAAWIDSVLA

The experiment concerns the target Recombinant human factor D (Homo sapiens (Human), UniProt P00746). The experiment is described as follows: Human Complement Factor D Assay: Method 1. Format: biochemical. To be noted: recombinant human factor D 10 nM; substrate Z-Lys-thiobenzyl; fluorescence readout; read-out: IC50 (μM), Factor D inhibition using Method 1. On the procedure: Human Complement Factor D Assay: Method 1
Recombinant human factor D (expressed in E. coli and purified using standard methods) at 10 nM concentration is incubated with test compound at various concentrations for 1 hour at room temperature in 0.1 M Hepes buffer, pH 7.5, containing 1 mM MgCl2, 1 M NaCl and 0.05% CHAPS. A synthetic substrate Z-Lys-thiobenzyl and 2,4-dinitrobenzenesulfonyl-fluoresceine are added to final concentrations of 200 μM and 25 μM, respectively. The increase in fluorescence is recorded at excitation of 485 nm and emission at 535 nm in a microplate spectrofluorimeter. IC50 values are calculated from percentage of inhibition of complement factor D-activity as a function of test compound concentration.
For the compound `NC(=O)c1nn(CC(=O)N2[C@@H]3C[C@@H]3C[C@H]2C(=O)Nc2ccn(CC(F)(F)F)n2)c2cnccc12` [Example 2, 1-(2-oxo-2-((1R,3S,5R)-3-((1-(2,2,2-trifluoroethyl)-1H-pyrazol-3-yl)carbamoyl)-2-azabicyclo[3.1.0]hexan-2-yl)ethyl)-1H-pyrazolo[3,4-c]pyridine-3-carboxamide], the IC50 amounted to 0.098 µM.
For `CC(C)n1ccc(NC(=O)[C@@H]2C[C@H]3C[C@H]3N2C(=O)Cn2nc(C(N)=O)c3ccccc32)n1` [Example 4, 1-(2-((1R,3S,5R)-3-(1-isopropyl-1H-pyrazol-3-ylcarbamoyl)-2-azabicyclo[3.1.0]hexan-2-yl)-2-oxoethyl)-1H-indazole-3-carboxamide] the value was 0.17 µM; for `NC(=O)c1nn(CC(=O)N2[C@@H]3C[C@@H]3C[C@H]2C(=O)Nc2ccn(CC(F)(F)F)n2)c2ccccc12` [Example 1, 1-(2-oxo-2-((1R,3S,5R)-3-(1-(2,2,2-trifluoroethyl)-1H-pyrazol-3-ylcarbamoyl)-2-azabicyclo[3.1.0]hexan-2-yl)ethyl)-1H-indazole-3-carboxamide], 0.064 µM; for `CC(=O)c1nn(CC(=O)N2[C@@H]3C[C@@H]3C[C@H]2C(=O)Nc2ccn(CC(F)(F)F)n2)c2cnccc12` [Example 3, (1R,3S,5R)-2-(2-(3-acetyl-1H-pyrazolo[3,4-c]pyridin-1-yl)acetyl)-N-(1-(2,2,2-trifluoroethyl)-1 H-pyrazol-3-yl)-2-azabicyclo[3.1.0] hexane-3-carboxamide], 0.083 µM.
As for `NC(=O)n1cc(NC(=O)N2[C@@H]3C[C@@H]3C[C@H]2C(=O)Nc2ccn(CC(F)(F)F)n2)c2ccccc21` [Example 5, (1R,3S,5R)—N2-(1-carbamoyl-1H-indol-3-yl)-N3-(1-(2,2,2-trifluoroethyl)-1H-pyrazol-3-yl)-2-azabicyclo[3.1.0]hexane-2,3-dicarboxamide], the IC50 stood at 0.032 µM.
